Results published in patent US7704943B2, “Transglutaminase for inhibiting angiogenesis” (Aston University, priority 2000, dated 2010).

B1: recombinant tTGase: exogenous recombinant tissue transglutaminase used in the study of Haroon et al 1999 (protein, UniProt P21980 2-687, looked up)
Protein-glutamine …: AEELVLERCDLELETNGRDHHTADLCREKLVVRRGQPFWLTLHFEGRNYEASVDSLTFSVVTGPAPSQEAGTKARFPLRDAVEEGDWTATVVDQQDCTLSLQLTTPANAPIGLYRLSLEASTGYQGSSFVLGHFILLFNAWCPADAVYLDSEEERQEYVLTQQGFIYQGSAKFIKNIPWNFGQFEDGILDICLILLDVNPKFLKNAGRDCSRRSSPVYVGRVVSGMVNCNDDQGVLLGRWDNNYGDGVSPMSWIGSVDILRRWKNHGCQRVKYGQCWVFAAVACTVLRCLGIPTRVVTNYNSAHDQNSNLLIEYFRNEFGEIQGDKSEMIWNFHCWVESWMTRPDLQPGYEGWQALDPTPQEKSEGTYCCGPVPVRAIKEGDLSTKYDAPFVFAEVNADVVDWIQQDDGSVHKSINRSLIVGLKISTKSVGRDEREDITHTYKYPEGSSEEREAFTRANHLNKLAEKEETGMAMRIRVGQSMNMGSDFDVFAHITNNTAEEYVCRLLLCARTVSYNGILGPECGTKYLLNLNLEPFSEKSVPLCILYEKYRDCLTESNLIKVRALLVEPVINSYLLAERDLYLENPEIKIRILGEPKQKRKLVAEVSLQNPLPVALEGCTFTVEGAGLTEEQKTVEIPDPVEAGEEVKVRMDLLPLHMGLHKLVVNFESDKLKAVKGFRNVIIGPA

How the values were obtained:
[1] = tested on: ECV304 cells; test: in vitro angiogenesis/tubulogenesis model, ECV304 cells co-cultured with C378 fibroblasts; type: cell-based, human
From the text: An in vitro system of angiogenesis/tubulogenesis was developed to evaluate the efficacy of TGase administration on angiogenesis. […] In the model cell system described below, ECV304 cells were co-cultured with the primary human dermal fibroblast cell line C378 (isolated from human foreskin), which provides the appropriate biochemical information to stimulate the differentiation of ECV304 to form capillary-like structures.
ECV304 cell lines S3 (a neomycin resistant transfected control cell line phenotypically similar to wild type cells) and B4 (a tTGase antisense transfected cell line [Jones, R. A., et al., 1997, J. Cell Sci. 110, 2461-2472]) and C378 were routinely cultured in Dulbecco's Modified Eagles Media (DMEM) supplemented with 2 mM glutamine and 10% (v/v) foetal calf serum (FCS). Cells were harvested by exposure to 0.25% (w/v) bovine trypsin in phosphate buffered saline (PBS) pH 7.4, and collected cells were washed in normal culture media, counted and seeded into the appropriate tissue culture vessel. Standard angiogenesis experiments were performed in 12-well cell culture plates, and 2×10^4 ECV304 cells and 2×10^4 C378 cells were seeded into 1 ml of normal growth media. For immunochemical staining experiment, 2×10^3 cells of each cell type were seeded into […] of growth medium in 8-well glass chamber slides. Co-cultures were incubated at 37° C. in a humidified atmosphere containing 5% (V/V) CO2, and tubules were allowed to develop spontaneously over a 14-day period, with regular changes of growth media every 72 hours.
For cultures treated with purified tTGase, a dose response with 1, 10 and 50 μg […] liver transglutaminase (gplTGase) was performed with two separate dosing regimes. gplTGase was activated by pre-incubation with 10 mM DTT on ice for one hour prior to its addition to cultures. The highest amount of DTT present in the cultures was 0.5 mm for the 50 μg gplTGase treatment, and control cultures were treated with DTT accordingly. In some experiments, cultures were treated with two administrations of exogenous enzyme on day 1 and day 4 of the experiment. Further studies extended the dose regime to include five gplTGase treatments, on days 1, 4, 7, 10 and 13.
Non-specific protein binding was blocked by incubating fixed cells with 300 μl of 3% (w/v) bovine serum albumin (BSA) overnight at 4° C. Blocked plates were then incubated with the primary antisera (see table 5), diluted in the above buffer, for 2 hours at 37° C. with gentle shaking. Next, plates were washed three times and incubated with the appropriate species-specific secondary antibody (see table 5) conjugated to Horseradish peroxidase (HRP) for 2 hours at 37° C. with gentle shaking. […]

[2] = tested on: rat dermal wound; settings: addition of exogenous enzyme, rat dermal wound healing; cited from earlier work

Molecule | microtubule formation (collagen type I, UEA-1 and tTGase staining) ([1]; 10 μM, compared to untreated cells) | microtubule formation ([1]; 100 μM) | microtubule formation ([1]; 200 μM) | angiogenesis (FIG. 4, tubules stained for collagen type I, UEA-1, tTGase) ([1]; standard angiogenesis inhibitor, positive control) | vessel length density [2]
Cc1ccc(C(=O)Nc2ccc(S(=O)(=O)O)c3cc(S(=O)(=O)O)cc(S(=O)(=O)O)c23)cc1NC(=O)c1cccc(NC(=O)Nc2cccc(C(=O)Nc3cc(C(=O)Nc4ccc(S(=O)(=O)O)c5cc(S(=O)(=O)O)cc(S(=O)(=O)O)c45)ccc3C)c2)c1 [suramin] | significantly reduced | completely eradicated | completely eradicated | inhibition of angiogenesis | 
B1 |  |  |  |  | increase in vessel length density
